Test system: human Cav3.1 Cav3.2 or Cav3.3 channel
Test: In vitro assay T channel (FLIPR calcium fluorescence)
Format: cell-based
Conditions: HEK293 cells expressing human Cav3.1, Cav3.2 or Cav3.3; 10 mM Ca2+-induced fluo-4 fluorescence; determined up to 10 μM; read-out: T channel antagonistic activity IC50
Description: The T channel antagonistic activity (IC50 values) of the compounds of formula (I) is determined in accordance with the following experimental method and data are shown in Table 1.
Human embryonic kidney (HEK293) cells expressing the human Cav3.1 Cav3.2 or Cav3.3 channel, respectively, are grown in culture medium (DMEM containing 10% heat-inactivated fetal calf serum (FCS), 100 U/ml penicillin, 100 μg/ml streptomycin and 1 mg/ml G418). The cells are seeded at 20.000 cells/well into 384-well black clear bottom sterile plates (poly-L-lysine-coated, Becton Dickinson). The seeded plates are incubated overnight at 37° C. in 5% CO2. The Ca^2+ solution is prepared as 100 mM stock solution in 100 mM tetraethylammoniumchloride (TEA-chloride), 50 mM HEPES, 2.5 mM CaCl2, 5 mM KCl, 1 mM MgCl2, adjusted to pH 7.2 with TEA-hydroxide, for use in the assay at a final concentration of 10 mM. Antagonists are prepared as 10 mM stock solutions in DMSO, then diluted in 384 w plates first in DMSO, then in 100 mM TEA-chloride, 50 mM HEPES, 2.5 mM CaCl2, 5 mM KCl, 1 mM MgCl2, adjusted to pH 7.2 with TEA-hydroxide, to obtain 9× stocks. On the day of the assay, 25 μl of staining buffer (HBSS containing 20 mM HEPES, 0.375 g/l NaHCO3 and 3 μM of the fluorescent calcium indicator fluo-4 AM (1 mM stock solution in DMSO, containing 10% pluronic) is added to each well of the seeded plate. The 384-well cell-plates are incubated for 60 min at 37° C. in 5% CO2 followed by washing with 2×50 μl per well using HBSS containing 0.1% BSA, 20 mM HEPES, 0.375 g/l NaHCO3, leaving 50 […] of this buffer for equilibration at room temperature (30-60 min). Within the Fluorescent Imaging Plate Reader (FLIPR, Molecular Devices), antagonists are added to the plate in a volume of 6.25 μl/well, incubated for 3 min, and finally 6.25 […] of Ca^2+ solution is added. Fluorescence is measured for each well at 2 second intervals for 8 minutes, and the area under the curve of each fluorescence peak is compared to the area of the fluorescence peak induced by 10 mM Ca^2+ with vehicle in place of antagonist. For each antagonist, the IC50 value (the concentration (in nM) of compound needed to inhibit 50% of the Ca^2+-induced fluorescence response) up to 10 μM is determined.

| Compound | IC50 [µM] |
| --- | --- |
| CC(C)C(=O)O[C@@]1(CCN(C)CCCc2nc3cc(Cl)c(Cl)cc3[nH]2)C[C@H]2CC[C@@H]1C=C2c1ccccc1 (relative stereo) [Example 27A, rac-Isobutyric acid (1R*,2R*,4R*)-2-(2-{[3-(5,6-dichloro-1H-benzoimidazol-2-yl)-propyl]-methyl-amino}-ethyl)-5-phenyl-bicyclo[2.2.2]oct-5-en-2-yl ester] | 6.74 |
| Cc1ccccc1C1=C[C@H]2CC[C@@H]1C[C@@]2(O)CCN(C)CCCc1nc2ccccc2[nH]1 (relative stereo) [Example 4, rac-(1R*,2R*,4R*)-2-(2-{[3-(1H-Benzoimidazol-2-yl)-propyl]-methyl-amino}-ethyl)-5-(2-methyl-phenyl)-bicyclo[2.2.2]oct-5-en-2-ol] | 3.61 |
| CN(CCc1nc2ccccc2[nH]1)CC[C@]1(O)C[C@H]2CC[C@@H]1C=C2c1ccccc1 (relative stereo) [Example 13, rac-(1R*,2R*,4R*)-2-(2-{[2-(1H-Benzoimidazol-2-yl)-ethyl]-methyl-amino}-ethyl)-5-phenyl-bicyclo[2.2.2]oct-5-en-2-ol] | 2.73 |
| CC(C)C(=O)O[C@@]1(CCN(C)CCCc2ccnc3ccccc23)C[C@H]2CC[C@@H]1C=C2c1ccccc1 (relative stereo) [Example 50A, rac-Isobutyric acid (1R*,2R*,4R*)-2-{2-[methyl-(3-quinolin-4-yl-propyl)-amino]-ethyl}-5-phenyl-bicyclo[2.2.2]oct-5-en-2-yl ester] | > 10 |
| CN(CCCc1nc2ccccc2[nH]1)CC[C@]1(O)C[C@H]2CC[C@@H]1C=C2c1cccs1 (relative stereo) [Example 21, rac-(1R*,2R*,4R*)-2-(2-{[3-(1H-Benzoimidazol-2-yl)-propyl]-methyl-amino}-ethyl)-5-thiophen-2-yl-bicyclo[2.2.2]oct-5-en-2-ol] | 3.47 |
| COc1cccc(C2=C[C@H]3CC[C@@H]2C[C@@]3(O)CCN(C)CCCc2nc3ccccc3[nH]2)c1 (relative stereo) [Example 2, rac-(1R*,2R*,4R*)-2-(2-{[3-(1H-Benzoimidazol-2-yl)-propyl]-methyl-amino}-ethyl)-5-(3-methoxy-phenyl)-bicyclo[2.2.2]oct-5-en-2-ol] | 5.98 |
| CN(CCCc1nc2ccccc2[nH]1)CCC1(O)CC2CCC1C=C2c1ccccc1 (single isomer, unassigned) [Example 12, (1R,2R,4R)-2-(2-{[3-(1H-Benzoimidazol-2-yl)-propyl]-methyl-amino}-ethyl)-5-phenyl-bicyclo[2.2.2]oct-5-en-2-ol or (1S,2S,4S)-2-(2-{[3-(1H-benzoimidazol-2-yl)-propyl]-methyl-amino}-ethyl)-5-phenyl-bicyclo[2.2.2]oct-5-en-2-ol] | > 10 |
| CN(CCCc1nc2cc(Cl)c(Cl)cc2[nH]1)CC[C@]1(O)C[C@H]2CC[C@@H]1C=C2c1ccccc1 (relative stereo) [Example 27, rac-(1R*,2R*,4R*)-2-(2-{[3-(5,6-Dichloro-1H-benzoimidazol-2-yl)-propyl]-methyl-amino}-ethyl)-5-phenyl-bicyclo[2.2.2]oct-5-en-2-ol] | > 10 |
| COc1ccc(CCCN(C)CC[C@]2(OC(=O)C(C)C)C[C@H]3CC[C@@H]2C=C3c2ccccc2)cc1OC (relative stereo) [Example 39A, rac-Isobutyric acid (1R*,2R*,4R*)-2-(2-{[3-(3,4-dimethoxy-phenyl)-propyl]-methyl-amino}-ethyl)-5-phenyl-bicyclo[2.2.2]oct-5-en-2-yl ester] | 7.49 |
| Cc1cccc(C2=C[C@H]3CC[C@@H]2C[C@]3(CCN(C)CCCc2nc3ccccc3[nH]2)OC(=O)C(C)C)c1 (relative stereo) [Example 5A, rac-Isobutyric acid (1R*,2R*,4R*)-2-(2-{[3-(1H-benzoimidazol-2-yl)-propyl]-methyl-amino}-ethyl)-5-(3-methyl-phenyl)-bicyclo[2.2.2]oct-5-en-2-yl ester] | 3.45 |
| COc1cccc2c1nc(CCCN(C)CC[C@]1(O)C[C@H]3CC[C@@H]1C=C3c1ccccc1)n2C (relative stereo) [Example 37, rac-(1R*,2R*,4R*)-2-(2-{[3-(4-Methoxy-1-methyl-1H-benzoimidazol-2-yl)-propyl]-methyl-amino}-ethyl)-5-phenyl-bicyclo[2.2.2]oct-5-en-2-ol] | 6.65 |
| CO[C@@]1(c2ccccc2)C[C@H]2CC[C@@H]1C[C@]2(O)CCN(C)CCCc1nc2ccccc2[nH]1 (relative stereo) [Example 77, rac-(1R*,2S*,4R*,5S*)-2-(2-{[3-(1H-Benzoimidazol-2-yl)-propyl]-methyl-amino}-ethyl)-5-methoxy-5-phenyl-bicyclo[2.2.2]octan-2-ol] | 9.1 |
| CC(C)C(=O)O[C@@]1(CCN(C)CCCc2nc3ccccc3[nH]2)C[C@H]2CC[C@@H]1C=C2c1cccc(F)c1 (relative stereo) [Example 7A, rac-Isobutyric acid (1R*,2R*,4R*)-2-(2-{[3-(1H-benzoimidazol-2-yl)-propyl]-methyl-amino}-ethyl)-5-(3-fluoro-phenyl)-bicyclo[2.2.2]oct-5-en-2-yl ester] | 3.14 |

Molecules with a lower IC50, results first:

| IC50 [µM] | Compound |
| --- | --- |
| 2.29 | COc1ccccc1-c1cnc(CCCN(C)CC[C@]2(OC(=O)C(C)C)C[C@H]3CC[C@@H]2C=C3c2ccccc2)[nH]1 (relative stereo) [Example 72A, rac-Isobutyric acid (1R*,2R*,4R*)-2-[2-({3-[5-(2-methoxy-phenyl)-1H-imidazol-2-yl]-propyl}-methyl-amino)-ethyl]-5-phenyl-bicyclo[2.2.2]oct-5-en-2-yl ester] |
| 2.12 | CO[C@]1(c2ccccc2)C[C@H]2CC[C@@H]1C[C@]2(CCN(C)CCCc1nc2ccccc2[nH]1)OC(=O)C(C)C (relative stereo) [Example 76A, rac-Isobutyric acid (1R*,2R*,4R*,5R*)-2-(2-{[3-(1H-benzoimidazol-2-yl)-propyl]-methyl-amino}-ethyl)-5-methoxy-5-phenyl-bicyclo[2.2.2]oct-2-yl ester] |
| 1.33 | COc1cccc2[nH]c(CCCN(C)CC[C@]3(O)C[C@H]4CCC[C@@H]3C=C4c3ccccc3)nc12 (relative stereo) [Example 36, rac-(1R*,5R*,6R*)-6-(2-{[3-(4-Methoxy-1H-benzoimidazol-2-yl)-propyl]-methyl-amino}-ethyl)-8-phenyl-bicyclo[3.2.2]non-8-en-6-ol] |
| 1.66 | CC(C)Oc1cccc2nc(CCCN(C)CC[C@]3(OC(=O)C(C)C)C[C@H]4CC[C@@H]3C=C4c3ccccc3)[nH]c12 (relative stereo) [Example 33A, rac-Isobutyric acid (1R*,2R*,4R*)-2-(2-{[3-(7-isopropoxy-1H-benzoimidazol-2-yl)-propyl]-methyl-amino}-ethyl)-5-phenyl-bicyclo[2.2.2]oct-5-en-2-yl ester] |
| 2.45 | COc1cccc2[nH]c(CCCN(C)CC[C@]3(OC(=O)CC(F)(F)F)C[C@H]4CCC[C@@H]3C=C4c3ccccc3)nc12 (relative stereo) [Example 36B, rac-3,3,3-Trifluoro-propionic acid (1R*,5R*,6R*)-6-(2-{[3-(4-methoxy-1H-benzoimidazol-2-yl)-propyl]-methyl-amino}-ethyl)-8-phenyl-bicyclo[3.2.2]non-8-en-6-yl ester] |
| 2.09 | COc1cccc2[nH]c(CCCN(C)CC[C@]3(OC(=O)C(C)C)C[C@H]4CC[C@@H]3C=C4c3ccccc3)nc12 (relative stereo) [Example 26A, rac-Isobutyric acid (1R*,2R*,4R*)-2-(2-{[3-(4-methoxy-1H-benzoimidazol-2-yl)-propyl]-methyl-amino}-ethyl)-5-phenyl-bicyclo[2.2.2]oct-5-en-2-yl ester] |
| 1.99 | CC(C)C(=O)O[C@@]1(CCN(C)CCCc2nc3c(Cl)cccc3[nH]2)C[C@H]2CC[C@@H]1C=C2c1ccccc1 (relative stereo) [Example 57A, rac-Isobutyric acid (1R*,2R*,4R*)-2-(2-{[3-(4-chloro-1H-benzoimidazol-2-yl)-propyl]-methyl-amino}-ethyl)-5-phenyl-bicyclo[2.2.2]oct-5-en-2-yl ester] |
| 0.727 | COc1ccc(OC)c2[nH]c(CCCN(C)CC[C@]3(OC(=O)C(C)C)C[C@H]4CCC[C@@H]3C=C4c3ccccc3)nc12 (relative stereo) [Example 69A, rac-Isobutyric acid (1R*,5R*,6R*)-6-(2-{[3-(4,7-dimethoxy-1H-benzoimidazol-2-yl)-propyl]-methyl-amino}-ethyl)-8-phenyl-bicyclo[3.2.2]non-8-en-6-yl ester] |
